{"source": "paper PMC11385693", "about": "“Synthesis of ferrocenyl benzimidazole derivatives as novel anti-Toxoplasma gondii agents” (New Journal of Chemistry, 2024)", "key": {"[1]": {"assay": "Aqueous stability studies (UV-vis monitoring, ESI-MS follow-up)", "assay_type": "physicochemical", "settings": "PBS pH 7.4, HEPES pH 7.0 and acetate buffer pH 4.6; 37 °C, 18 hours, 50 μM", "description": "The stability of complexes 14–17 in an aqueous environment was investigated. The stability experiments were performed in PBS (pH 7.4) and HEPES (pH 7.0) buffers, as well as in acidic acetate buffer (pH 4.6), by monitoring the UV-vis spectra of the compounds at 37 °C over an 18-hour period.\nTo further investigate the stability of 14, the PBS, HEPES and acetate buffer solutions were evaporated to dryness, and then analysed using electrospray ionisation mass spectrometry in the positive ionisation mode.\nPBS and HEPES buffers were prepared as described above. An acetate buffer with a concentration of […] and a pH of 4.60 was prepared by dissolving 5.40 g (65.83 mmol) of sodium acetate in 50 mL of dH2O. The resulting solution was then titrated to a pH of 4.60 with glacial acetic acid and made up to 100 mL with dH2O.\n1 mM stock solutions of the synthesised target compounds in MeOH were prepared. 1.90 mL of buffer (PBS, HEPES or acetate buffer) was pipetted into cuvettes followed by the addition 100 μL of test compound stock solutions, diluting them to a final concentration of 50 μM. The cuvettes were then stoppered, inverted to mix the solution, and placed in an Agilent Cary 3500 UV-vis spectrophotometer as fast as possible. Blank solutions in matched cuvettes were also prepared by adding 100 μL of MeOH to 1.9 mL of buffer. The solutions in all the cuvettes were stirred at 400 rpm ensure proper mixing. UV spectra were then recoded every 5 minutes for 18 hours with a spectral width of 200–1100 nm to monitor the stability of the test compounds."}, "[2]": {"tested_on": "T. gondii parasites", "assay": "Determination of ROS formation by FACS (CellROX deep red)", "assay_type": "cell-based, Toxoplasma gondii", "settings": "66 μM, 18 hours, compared with untreated parasites", "description": "Once it had been established that two of the synthesised ferrocenyl benzimidazole derivatives were biologically active, their potential mode of action was explored. Given the presence of the ferrocenyl moiety, and the cyclic voltammetry results, it was of interest to investigate whether the compounds induce ROS, which may provide an explanation for their anti-parasitic activity. Thus, cells heavily infected with parasites were incubated with target compounds for 18 hours, before isolating the parasites and staining them with CellRox deep red reagent. CellRox is an oxidation sensitive dye which is non-fluorescent in its reduced state but fluoresces bright red at 665 nm upon being oxidised by ROS. FACS was then used to quantify CellROX parasite florescence.[56] Parasites were incubated with ferrocene carboxylic acid (FcCOOH), and untreated parasites were used as controls.\n6 cm dishes of host cells heavily infected with T. gondii were untreated or treated with 66 μM (second highest concentration used in growth inhibition assays) of test compounds for 18 hours. The dishes were then scratched and syringed, before filtering the solution into 10 mL falcon tubes to remove cell debris. The tubes were spun down for 10 minutes at 1500 rpm. The media was then removed from the tubes, and the pellet resuspended in 200 μL of PBS buffer. For each drug, 100 μL of the resuspended pellet was then placed into 2 FACS tubes, one which would then be stained with CellROX dye, and the other 100 μL of PBS added to act as an unstained control. A 1 : 125 dilution of CellROX stock solution was performed, and 100 μL of this solution added to the FACS tubes needing staining. Stained tubes were incubated at 37 °C for at least 15 min before analysis on a BD Celesta flow cytometer. Data was obtained using FACSDiva software with parasites being gated on forward scatter, side scatter and green fluorescence. FlowJo v10 software was used to plot the geometric mean of CellRox fluorescence from at least 5000 parasites on the Cy7 channel."}}, "data": [{"smiles": "O=C(NCCn1cnc2cccnc21)[c-]1cccc1.[Fe+2].c1cc[cH-]c1", "note": "[Compound 17]", "values": [{"measurement": "Change of UV-vis spectrum over time (aqueous stability)", "setting": "[1]", "result": "remained unchanged"}, {"measurement": "ROS formation in treated parasites (CellRox red fluorescence)", "setting": "[2]", "result": "triggered the formation of ROS"}]}]}
